Source: paper PMC10451632, “Site Mutation Improves the Expression and Antimicrobial Properties of Fungal Defense” (Antibiotics, 2023)
≈ marks a conversion by molar mass, not a printed value. Read-outs that look alike come from different tables or passages of the source. Bridge positions count the residues as written; N and C are the ends. Peptide text beside a SMILES is read from it.

How the values were obtained:
S. aureus ATCC 25923 = format: cell-based, Staphylococcus aureus
Procedure: (§1) The experimental operation of the expression of the Plectasin variant in P. pastoris in well plates, shaking flasks, and 5 L level fermentation was performed as referenced in previous studies. Candidates were identified through three different levels of screening. Firstly, a large number of transformants were screened through well plates to induce expression and determined by the inhibition zone assay (against S. aureus ATCC 43300). Secondly, the transformants with obvious inhibition zones were sequenced to obtain protein sequence information, then induced expression at the shake level. The supernatant was collected and purified to obtain the target protein; the anti-Staphylococcus aureus activity of the protein was detected by a MIC assay. Finally, the codons of candidate sequences were optimized, the expression vector was reconstructed, the optimal transformers were obtained, and the high-density cultivation was performed in a 5 L fermenter. The final agent was determined by high protein yield and good activity (Figure 2).
(§2) The MIC value of PN7 against bacteria was determined by the microtiter broth dilution method. Briefly, bacteria grown to the exponential phase were diluted into MHB; subsequently, 90 μL of bacterial suspension (10^5 CFUs/mL) was mixed with 10 μL of different concentrations of PN7 in a sterilized 96-well microtiter plate (Nunc). MIC values were recorded after incubation for 16–18 h at 37 °C based on the lowest concentrations of peptides in which no visible bacterial growth was observed.

S. aureus CVCC 546 = format: cell-based, Staphylococcus aureus
Procedure: as §1, §2

S. aureus E48 = format: cell-based, Staphylococcus aureus
Procedure: as §1, §2

S. aureus CICC 10473 = test: MIC, microtiter broth dilution; format: cell-based, Staphylococcus aureus; conditions: MHB, 10^5 CFUs/mL, 16–18 h at 37 °C
Procedure: as §2

[1] = system: Escherichia coli CVCC 195; test: MIC, microtiter broth dilution; format: cell-based; conditions: MHB, 10^5 CFUs/mL, 16–18 h at 37 °C
Procedure: as §2

[2] = system: Pseudomonas aeruginosa CICC 20625; test: MIC, microtiter broth dilution; format: cell-based; conditions: MHB, 10^5 CFUs/mL, 16–18 h at 37 °C
Procedure: as §2

S. agalactiae ATCC 13813 = test: MIC, microtiter broth dilution; format: cell-based; conditions: MHB, 10^5 CFUs/mL, 16–18 h at 37 °C
Procedure: as §2

S. agalactiae CAU-FRI-4 = test: MIC, microtiter broth dilution; format: cell-based; conditions: MHB, 10^5 CFUs/mL, 16–18 h at 37 °C
Procedure: as §2

S. enteritidis CVCC 3377 = test: MIC, microtiter broth dilution; format: cell-based; conditions: MHB, 10^5 CFUs/mL, 16–18 h at 37 °C
Procedure: as §2

[3] = system: S. epidermidis ATCC 35984; test: MIC, microtiter broth dilution; format: cell-based; conditions: MHB, 10^5 CFUs/mL, 16–18 h at 37 °C
Procedure: as §2

S. hyicus 437-2 = test: MIC, microtiter broth dilution; format: cell-based; conditions: MHB, 10^5 CFUs/mL, 16–18 h at 37 °C
Procedure: as §2

S. hyicus NCTC 10350 = test: MIC, microtiter broth dilution; format: cell-based; conditions: MHB, 10^5 CFUs/mL, 16–18 h at 37 °C
Procedure: as §2

S. pullorum CVCC 1789 = test: MIC, microtiter broth dilution; format: cell-based; conditions: MHB, 10^5 CFUs/mL, 16–18 h at 37 °C
Procedure: as §2

[4] = system: Salmonella enterica ATCC 13076; test: MIC, microtiter broth dilution; format: cell-based; conditions: MHB, 10^5 CFUs/mL, 16–18 h at 37 °C
Procedure: as §2

[5] = system: Streptococcus. suis CVCC 606; test: MIC, microtiter broth dilution; format: cell-based; conditions: MHB, 10^5 CFUs/mL, 16–18 h at 37 °C
Procedure: as §2

E. coli ATCC 25922 = test: MIC, microtiter broth dilution; format: cell-based, Escherichia coli; conditions: MHB, 10^5 CFUs/mL, 16–18 h at 37 °C
Procedure: as §2

E. coli CVCC 1515 = test: MIC, microtiter broth dilution; format: cell-based, Escherichia coli; conditions: MHB, 10^5 CFUs/mL, 16–18 h at 37 °C
Procedure: as §2

E. coli O157 = test: MIC, microtiter broth dilution; format: cell-based, Escherichia coli; conditions: MHB, 10^5 CFUs/mL, 16–18 h at 37 °C
Procedure: as §2

mouse erythrocytes = test: Hemolytic activity; format: cell-based; conditions: 128 μg/mL; fresh mouse red blood cells; 0.1% Triton X-100 = 100% hemolysis; mean of three biological replicates
Procedure: The hemolytic activity of PN7 was evaluated based on the amount of the released hemoglobin from erythrocyte suspensions of healthy mouse blood. Erythrocyte suspensions treated with 0.1% Triton X-100 and saline were used as 100% hemolysis and negative control, respectively.

human keratinocyte HaCaT = test: Cytotoxicity, MTT assay; format: cell-based; conditions: HaCaT cells, at 128 mg/mL (so in the source)
Procedure: (§3) The cytotoxicity of PN7 was evaluated by MTT (Beyotime, Shanghai, China) assay.

[6] = system: mouse macrophages RAW264.7; test: Cytotoxicity, MTT assay; format: cell-based
Procedure: as §3

[7] = Thermal stability, MIC read-out; format: physicochemical; conditions: 1 h, 1280 μg/mL in physiological saline, triplicate
Procedure: PN7 dissolved in physiological saline solution was prepared into mother liquor with a concentration of 1280 μg/mL and incubated at different temperatures for 1 h. PN7 was dissolved in different pH buffers at 37 °C for 4 h. After double gradient dilution, MIC assays were used to detect the change in antibacterial activity.

S. aureus ATCC 43300 = test: SEM morphological observation; format: cell-based, Staphylococcus aureus; conditions: 2× MIC, 30 min
Procedure: To further characterize the bactericidal effects of peptide, SEM was used to visualize the morphological changes. S. aureus ATCC 43300 cells were treated with PN7. Cells for SEM were processed as described previously.

[8] = microtiter broth dilution, MHB, 10^5 CFUs/mL, 16–18 h at 37 °C

Compound `CC[C@H](C)[C@@H]1NC(=O)[C@H](CO)NC(=O)[C@H](CCCCN)NC(=O)[C@@H]2CSSC[C@@H](C(=O)N[C@@H](Cc3ccc(O)cc3)C(=O)O)NC(=O)[C@H](CCCCN)NC(=O)[C@@H]3CSSC[C@H](NC(=O)[C@H](CCCNC(=N)N)NC(=O)CNC(=O)[C@H](CC(=O)O)NC(=O)[C@H](CC(=O)O)NC(=O)[C@H](CCC(=O)O)NC(=O)[C@H](Cc4ccc(O)cc4)NC(=O)[C@H](Cc4c[nH]c5ccccc45)NC(=O)[C@@H]4CCCN4C(=O)CNC(=O)[C@H](CC(N)=O)NC(=O)[C@@H](NC(=O)CNC(=O)[C@H](Cc4ccccc4)NC(=O)CN)CSSC[C@H](NC(=O)[C@H](Cc4ccc(O)cc4)NC(=O)CNC(=O)CNC(=O)[C@H](CCCCN)NC(=O)[C@H](Cc4ccc(O)cc4)NC(=O)CNC(=O)[C@H](CCCCN)NC1=O)C(=O)N[C@@H](C)C(=O)N[C@@H](CCCCN)C(=O)NCC(=O)NCC(=O)N[C@@H](Cc1ccccc1)C(=O)N[C@@H](C(C)C)C(=O)N3)C(=O)N[C@@H](Cc1c[nH]cn1)C(=O)N[C@@H](CC(N)=O)C(=O)N[C@@H](Cc1c[nH]cn1)C(=O)N2` [PN7] (H-GFGCNGPWYEDDGRCHNHCKSIKGYKGGYCAKGGFVCKCY-OH; disulfide 4-30, 15-37, 19-39 (inferred); N-terminus and C-terminus assumed) has an MIC (S. aureus ATCC 25923; S. aureus 25923, purified protein induced by shaking flasks) of 16 µg/mL (≈ 3.63 µM), an MIC (S. aureus ATCC 25923; [8]) of 16 µg/mL (≈ 3.63 µM) and an MIC (S. aureus CVCC 546; S. aureus 546, purified protein induced by shaking flasks) of 4 µg/mL (≈ 0.908 µM). The MIC (S. aureus CVCC 546; [8]) was 1 µg/mL (≈ 0.227 µM), the MIC (S. aureus E48; S. aureus E48, purified protein induced by shaking flasks) was 4 µg/mL (≈ 0.908 µM) and the MIC (S. aureus E48; [8]) was 1 µg/mL (≈ 0.227 µM). It also gave an MIC (S. aureus CICC 10473) of 4 µg/mL (≈ 0.908 µM), an MIC [1] greater than 128 µg/mL and an MIC [2] greater than 128 µg/mL. It also gave an MIC (S. agalactiae ATCC 13813) of 2 µg/mL (≈ 0.454 µM), an MIC (S. agalactiae CAU-FRI-4) of 1 µg/mL (≈ 0.227 µM) and an MIC (S. enteritidis CVCC 3377) greater than 128 µg/mL. For the same compound, the MIC [3] was 16 µg/mL (≈ 3.63 µM), the MIC (S. hyicus 437-2) was 8 µg/mL (≈ 1.82 µM) and the MIC (S. hyicus NCTC 10350) was 4 µg/mL (≈ 0.908 µM). For the same compound, the MIC (S. pullorum CVCC 1789) was greater than 128 µg/mL, the MIC [4] was greater than 128 µg/mL and the MIC [5] was 1 µg/mL (≈ 0.227 µM). For the same compound, the MIC (E. coli ATCC 25922) was greater than 128 µg/mL, the MIC (E. coli CVCC 1515) was greater than 128 µg/mL and the MIC (E. coli O157) was greater than 128 µg/mL. For the same compound, the hemolysis (mouse erythrocytes) was 0.19%, the cell viability (human keratinocyte HaCaT) was 85.36% and the survival ([6]; RAW264.7 and HaCaT cells (Figure 6B,C), 128 μg/mL) was greater than 85%. For the same compound, the cell viability ([6]; RAW264.7 cells, MTT, at 128 mg/mL (so in the source)) was 92.77%, the “thermal stability (antibacterial activity)” value ([7]; 20–80 °C) was “stable” and the “decrease of antibacterial activity” value ([7]; 100 °C) was 1 fold. The “cell morphology by SEM” value (S. aureus ATCC 43300) was “shrinkage only appears in the cell surface”.
